Experimental data: patent US20070060651A1, “Compositions and methods for improving functional vascular cellular survival integrity and reducing apoptosis in ischemia” (NESTEC S.A., priority 2005, published 2007)

Experiments:
[1] = tested on: growth factors and anti-inflammatory proteins; assay: Expression of growth factors and anti-inflammatory proteins in dogs on supplemental arginine; type: in vivo, dog; conditions: dietary supplementation
[2] = tested on: transient cerebral ischemia in an ovariectomized rat model; assay: Ischemic lesion (infarct) volume by TTC staining after transient middle cerebral artery (tMCA) occlusion; type: in vivo; conditions: all rats; vs control diet; 60 min tMCA occlusion, 24 hours reperfusion; FIG. 1
Protocol: Animals. Female Charles Rivers Sprague-Dawley rats (250 g, Wilmington, Mass.) were acclimatized to animal facilities three days prior to surgery with a 12 hour light-dark cycle. Bilateral ovariectomy was performed 2 weeks before diet feeding began. Four weeks after the start of diet feeding, transient middle cerebral artery (tMCA) occlusion under anesthesia was performed following intraperitoneal (i.p.) injection of ketamine (60 mg/kg) and xylazine (10 mg/kg).
Diet and Hormone Administration. Fourteen to 15 rats per group were randomly assigned to one of five treatment groups. These groups were as follows: […]
All diets were fed ad libitum to the rats for four weeks. […] Also once per week, body weights and food intake were determined. […]
Middle cerebral artery occlusion and samples preparation. […] Rectal temperature was monitored and maintained between 36.5 and 37° C. with a heating pad throughout the procedure. […]
Some animals were eliminated from the study during the protocol. The number of animals quantified for lesion volume ranged from 12 to 15 per group.
Statistical methods. Results were analyzed with one-way analysis of variance (ANOVA) using Prism software(Graphpad Inc; San Diego, Calif.). The significance of differences among groups was determined by one-way ANOVA followed by Tukey's multiple comparison tests. All values were expressed as mean +/−SEM.

[3] = tested on: transient cerebral ischemia in an ovariectomized rat model; assay: Cerebral ischemia-induced apoptosis by TUNEL staining after tMCA occlusion; type: in vivo; conditions: average of three brain regions, normalized to DAPI total cells; vs control; FIG. 3

Row | Compound | expression of multiple growth factors and anti-inflammatory proteins [1] | effect on infarct size / mean infarct volume (in words) [2] | TUNEL staining / TUNEL-positive cell counts (apoptosis), in words [3]
1 | N=C(N)NCCC[C@H](N)C(=O)O [arginine, L-arginine] | increased expression of multiple growth factors and anti-inflammatory proteins in a dose-dependent manner |  | 
2 | C[C@]12CC[C@@H]3c4ccc(O)cc4CC[C@H]3[C@@H]1CC[C@@H]2O [estradiol, 17 β-estradiol] |  | reduced infarct size | substantial reduction in TUNEL staining
